Source: patent US9241947B2, “Boronic acid derivatives and therapeutic uses thereof” (priority 2013, dated 2016)
Like-named read-outs stand apart in the source and are kept apart here.

How the values were obtained:
[1] = molecular target: T1, NDM-1 (Klebsiella pneumoniae, UniProt C7C422); format: biochemical
[2] = molecular target: T2, VIM-1 (Pseudomonas aeruginosa, UniProt A0A0F7KYQ8); format: biochemical; details: cleavage of nitrocefin (200 uM) by VIM-1 supernatant
T2 construct: made in house; host or cells: ECM6711 strain carrying pUCP24-VIM-1 plasmid (culture supernatant, not purified)

[3] = molecular target: T1, NDM-1; format: biochemical; details: read-out: Ki NDM-1, Imipenem
[4] = tested on: AB1144 (NDM-1); assay: Carbapenem potentiation against clinical isolate; format: cell-based; details: Acinetobacter baumannii
Excerpt: (§1) The results are present in Table 6.
(§2) The results are present in Table 7.

[5] = tested on: EC1064 (NDM-1, CMY-6, CTX-M-15); assay: Carbapenem potentiation against clinical isolate; format: cell-based; details: Escherichia coli, strain EC1064
Excerpt: as §1, §2

[6] = tested on: KP1004 (KPC-2, TEM-1, SHV-11); assay: Carbapenem potentiation against clinical isolate; format: cell-based; details: Klebsiella pneumoniae, strain KP1004
Excerpt: as §1, §2

[7] = tested on: KP1014 (VIM-1); assay: Carbapenem potentiation against clinical isolate; format: cell-based; details: Klebsiella pneumoniae, strain KP1014
Excerpt: as §1, §2

[8] = tested on: KP1054 (VIM-1, SHV-11); assay: Carbapenem potentiation against clinical isolate; format: cell-based; details: Klebsiella pneumoniae, strain KP1054
Excerpt: as §1, §2

[9] = tested on: KP1064 (KPC-2, SHV-11, TEM-1); assay: Carbapenem potentiation against clinical isolate; format: cell-based; details: Klebsiella pneumoniae, strain KP1064
Excerpt: as §1, §2

[10] = tested on: KP1074 (KPC-3, SHV-11, TEM); assay: Carbapenem potentiation against clinical isolate; format: cell-based; details: Klebsiella pneumoniae, strain KP1074
Excerpt: as §1, §2

[11] = tested on: KP1081 (NDM-1, TEM-1, SHV-11, CMY-6, CTX-M-15); assay: Carbapenem potentiation against clinical isolate; format: cell-based; details: Klebsiella pneumoniae, strain KP1081
Excerpt: as §1, §2

[12] = tested on: KP1084 (KPC-3, SHV-11, TEM-1); assay: Carbapenem potentiation against clinical isolate; format: cell-based; details: Klebsiella pneumoniae, strain KP1084
Excerpt: as §1, §2

[13] = tested on: KP1086 (TEM, SHV, CTX-M-15, OXA-48); assay: Carbapenem potentiation against clinical isolate; format: cell-based; details: Klebsiella pneumoniae, strain KP1086
Excerpt: as §1, §2

[14] = tested on: KP1087 (KPC-2, CTX-M-15, SHV-11, TEM-1); assay: Carbapenem potentiation against clinical isolate; format: cell-based; details: Klebsiella pneumoniae, strain KP1087
Excerpt: as §1, §2

[15] = tested on: ECM6703 pUCP24-NDM-1; format: cell-based, E. coli; details: Compound 1 at fixed 4 μg/ml or 8 μg/ml; NDM-1 producing strain
[16] = tested on: ECM6711 pUCP24-VIM-1; format: cell-based, E. coli; details: Compound 1 at fixed 4 μg/ml or 8 μg/ml; VIM-1 producing strain
[17] = tested on: clinical isolates expressing class A, B and D carbapenemases; assay: Carbapenem potentiation against panel of clinical isolates; format: cell-based; details: Compound 1 at fixed 5 μg/ml; biapenem, doripenem, imipenem, meropenem; all the strains
Excerpt: as §1

[18] = molecular target: OXA-48 (Klebsiella pneumoniae, UniProt Q6XEC0); assay: Inhibition of purified class D carbapenemase, biapenem substrate; format: biochemical; details: purified enzyme
Sequence of OXA-48 (Q6XEC0 23-265 limits assumed): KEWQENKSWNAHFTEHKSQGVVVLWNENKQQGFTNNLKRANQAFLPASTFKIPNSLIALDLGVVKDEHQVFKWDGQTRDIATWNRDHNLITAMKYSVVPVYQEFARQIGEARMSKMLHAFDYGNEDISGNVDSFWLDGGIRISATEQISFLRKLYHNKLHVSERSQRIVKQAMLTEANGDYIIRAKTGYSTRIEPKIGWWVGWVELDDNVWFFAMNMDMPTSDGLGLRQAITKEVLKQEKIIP

[19] = molecular target: SHV-12 (Klebsiella pneumoniae, UniProt P0AD64, E235K/G234S/L31Q); assay: Inhibition of nitrocefin cleavage by purified enzyme; format: biochemical; details: nitrocefin substrate; read-out: Ki (SHV-12, NCF)
Sequence of SHV-12 (P0AD64 22-286 L31Q/G234S/E235K): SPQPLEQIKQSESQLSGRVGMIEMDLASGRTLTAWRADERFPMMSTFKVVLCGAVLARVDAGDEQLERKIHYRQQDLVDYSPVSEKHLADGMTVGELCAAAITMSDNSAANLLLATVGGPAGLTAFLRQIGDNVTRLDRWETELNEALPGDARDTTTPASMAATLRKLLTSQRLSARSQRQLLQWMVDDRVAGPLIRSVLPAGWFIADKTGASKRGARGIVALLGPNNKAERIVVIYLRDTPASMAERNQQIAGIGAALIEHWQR
Description: Purified enzymes were mixed with various concentrations of inhibitors in reaction buffer and incubated for 10 min at room temperature. Nitrocefin was added and substrate cleavage profiles were recorded at 490 nm every 10 sec for 10 min.

[20] = tested on: EA1019 (SHV-5, VIM-1); assay: Carbapenem potentiation against clinical isolate; format: cell-based, Enterobacter aerogenes; details: Klebsiella aerogenes; strain EA1019; read-out: Doripenem MIC Alone
Excerpt: as §1, §2

[21] = cleavage of biapenem (100 uM) by NDM-1, read-out: Ki, Biapenem
[22] = cleavage of tebipenem (100 uM) by NDM-1, read-out: Ki, Tebipenem

T1 sequence (C7C422 29-270 limits assumed): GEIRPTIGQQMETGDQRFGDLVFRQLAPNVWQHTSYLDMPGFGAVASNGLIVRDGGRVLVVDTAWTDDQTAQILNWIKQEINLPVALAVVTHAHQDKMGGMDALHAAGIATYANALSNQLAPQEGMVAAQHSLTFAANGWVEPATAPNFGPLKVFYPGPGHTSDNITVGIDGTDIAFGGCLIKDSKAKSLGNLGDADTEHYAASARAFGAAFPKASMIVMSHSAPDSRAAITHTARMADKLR

CC(=N)S[C@H]1Cc2cccc(C(=O)O)c2OB1O [Compound 10, (R)-2-hydroxy-3-(1-iminoethylthio)-3,4-dihydro-2H-benzo[e][1,2]oxaborinine-8-carboxylic acid]
Ki ([1]; read-out: Ki, Imipenem): 10 to 100 nM | IC50 [2]: ≥ 1000 nM | Ki [3]: 10 to 100 nM

C[C@@H](O)[C@H]1C(=O)N2C(C(=O)O)=C(SCCN=CN)C[C@H]12 [Imipenem]
MIC ([4]; read-out: Imipenem MIC Alone): > 10 µg/mL | MIC ([5]; read-out: Imipenem MIC Alone): > 10 µg/mL | MIC ([6]; read-out: Imipenem MIC Alone): > 10 µg/mL | MIC ([7]; read-out: Imipenem MIC Alone): > 10 µg/mL | MIC ([8]; read-out: Imipenem MIC Alone): 1 to 10 µg/mL | MIC ([9]; read-out: Imipenem MIC Alone): > 10 µg/mL | MIC ([10]; read-out: Imipenem MIC Alone): > 10 µg/mL | MIC ([11]; read-out: Imipenem MIC Alone): > 10 µg/mL | MIC ([12]; read-out: Imipenem MIC Alone): > 10 µg/mL | MIC ([13]; read-out: Imipenem MIC Alone): > 10 µg/mL | MIC ([14]; read-out: Imipenem MIC Alone): 1 to 10 µg/mL

O=C(O)c1cccc2c1OB(O)[C@@H](Sc1nncs1)C2 [Compound 1, (R)-3-(1,3,4-thiadiazol-2-ylthio)-2-hydroxy-3,4-dihydro-2H-benzo[e][1,2]oxaborinine-8-carboxylic acid]
Ki [1, 21]: 10 to 100 nM | Ki [1, 22]: > 100 nM | Ki ([1]; read-out: Ki, Imipenem): 10 to 100 nM | IC50 [2]: < 1000 nM | Ki [3]: 10 to 100 nM | imipenem MIC in the presence of Compound 1 [15]: decreased to the level of the strain containing empty vector | imipenem MIC in the presence of Compound 1 [16]: decreased to the level of the strain containing empty vector | carbapenem MIC in the presence of Compound 1 [17]: significantly reduced

O=C(O)c1cccc2c1OB(O)[C@@H](OCc1ccccc1)C2 [Compound 13, (R)-3-(benzyloxy)-2-hydroxy-3,4-dihydro-2H-benzo[e][1,2]oxaborinine-8-carboxylic acid]
Ki ([1]; read-out: Ki, Imipenem): 10 to 100 nM | IC50 [2]: < 1000 nM | Ki [3]: 10 to 100 nM

O=C(O)c1cccc2c1OB(O)[C@@H](Sc1nnc[nH]1)C2 [Compound 2, (R)-3-(4H-1,2,4-triazol-3-ylthio)-2-hydroxy-3,4-dihydro-2H-benzo[e][1,2]oxaborinine-8-carboxylic acid]
Ki [1, 22]: 10 to 100 nM | Ki ([1]; read-out: Ki, Imipenem): < 10 nM | IC50 [2]: < 1000 nM | Ki [18]: 10 to 100 nM | Ki [3]: < 10 nM | Ki [19]: < 100 nM

Nn1cnnc1S[C@H]1Cc2cccc(C(=O)O)c2OB1O [Compound 14, (R)-3-(4-amino-4H-1,2,4-triazol-3-ylthio)-2-hydroxy-3,4-dihydro-2H-benzo[e][1,2]oxaborinine-8-carboxylic acid]
IC50 [2]: < 1000 nM | Ki [19]: < 100 nM

CC(=O)Nc1nnc(S[C@H]2Cc3cccc(C(=O)O)c3OB2O)s1 [Compound 7, (R)-3-(5-acetamido-1,3,4-thiadiazol-2-ylthio)-2-hydroxy-3,4-dihydro-2H-benzo[e][1,2]oxaborinine-8-carboxylic acid]
Ki ([1]; read-out: Ki, Imipenem): 10 to 100 nM | IC50 [2]: < 1000 nM | Ki [18]: < 10 nM | Ki [3]: 10 to 100 nM | Ki [19]: < 100 nM

Cn1nnnc1S[C@H]1Cc2cccc(C(=O)O)c2OB1O [Compound 5, (R)-2-hydroxy-3-(1-1H-tetrazol-5-ylthio)-3,4-dihydro-2H-benzo[e][1,2]oxaborinine-8-carboxylic acid]
Ki ([1]; read-out: Ki, Imipenem): 10 to 100 nM | IC50 [2]: ≥ 1000 nM | Ki [3]: 10 to 100 nM

C[C@@H](O)[C@H]1C(=O)N2C(C(=O)O)=C(S[C@@H]3CN[C@H](CNS(N)(=O)=O)C3)[C@H](C)[C@H]12 [Doripenem]
MIC ([4]; strain AB1144, read-out: Doripenem MIC Alone): > 10 µg/mL | MIC ([5]; read-out: Doripenem MIC Alone): > 10 µg/mL | MIC ([6]; read-out: Doripenem MIC Alone): 1 to 10 µg/mL | MIC ([7]; read-out: Doripenem MIC Alone): > 10 µg/mL | MIC ([8]; read-out: Doripenem MIC Alone): > 10 µg/mL | MIC ([9]; read-out: Doripenem MIC Alone): > 10 µg/mL | MIC ([10]; read-out: Doripenem MIC Alone): > 10 µg/mL | MIC ([11]; read-out: Doripenem MIC Alone): > 10 µg/mL | MIC ([12]; read-out: Doripenem MIC Alone): > 10 µg/mL | MIC ([13]; read-out: Doripenem MIC Alone): > 10 µg/mL | MIC ([14]; read-out: Doripenem MIC Alone): > 10 µg/mL | MIC [20]: > 10 µg/mL

NC(=O)CS[C@H]1Cc2cccc(C(=O)O)c2OB1O [Compound 3, (R)-3-(2-amino-2-oxoethylthio)-2-hydroxy-3,4-dihydro-2H-benzo[e][1,2]oxaborinine-8-carboxylic acid]
Ki [1, 21]: > 100 nM | Ki [1, 22]: > 100 nM | Ki ([1]; read-out: Ki, Imipenem): > 100 nM | Ki [18]: < 10 nM | Ki [3]: > 100 nM | Ki [19]: 100 to 1000 nM

NC(=O)CCS[C@H]1Cc2cccc(C(=O)O)c2OB1O [Compound 9, (R)-3-(3-amino-3-oxopropylthio)-2-hydroxy-3,4-dihydro-2H-benzo[e][1,2]oxaborinine-8-carboxylic acid]
Ki ([1]; read-out: Ki, Imipenem): > 100 nM | IC50 [2]: < 1000 nM | Ki [18]: 10 to 100 nM | Ki [3]: > 100 nM | Ki [19]: 100 to 1000 nM

Nc1nnc(S[C@H]2Cc3cccc(C(=O)O)c3OB2O)s1 [Compound 4, (R)-3-(5-amino-1,3,4-thiadiazol-2-ylthio)-2-hydroxy-3,4-dihydro-2H-benzo[e][1,2]oxaborinine-8-carboxylic acid]
Ki [1, 21]: < 10 nM | Ki [1, 22]: < 10 nM | Ki ([1]; read-out: Ki, Imipenem): < 10 nM | IC50 [2]: < 1000 nM | Ki [18]: < 10 nM | Ki [3]: < 10 nM | Ki [19]: < 100 nM

O=C(O)c1cccc2c1OB(O)[C@@H](Sc1ccccc1)C2 [Compound 6, (R)-2-hydroxy-3-(phenylthio)-3,4-dihydro-2H-benzo[e][1,2]oxaborinine-8-carboxylic acid]
Ki ([1]; read-out: Ki, Imipenem): < 10 nM | IC50 [2]: < 1000 nM | Ki [3]: < 10 nM

O=C(O)c1cccc2c1OB(O)[C@@H](Sc1c[nH]nn1)C2 [Compound 12, (R)-3-(1H-1,2,3-triazol-4-ylthio)-2-hydroxy-3,4-dihydro-2H-benzo[e][1,2]oxaborinine-8-carboxylic acid]
Ki ([1]; read-out: Ki, Imipenem): 10 to 100 nM | IC50 [2]: < 1000 nM | Ki [3]: 10 to 100 nM

C[C@@H](O)[C@H]1C(=O)N2C(C(=O)[O-])=C(SC3Cn4cnc[n+]4C3)[C@H](C)[C@H]12 (stereo partly drawn) [Biapenem]
MIC ([11]; read-out: Biapenem MIC Alone): > 10 µg/mL

C[C@@H](O)[C@H]1C(=O)N2C(C(=O)O)=C(S[C@@H]3CN[C@H](C(=O)N(C)C)C3)[C@H](C)[C@H]12 [Meropenem]
MIC ([4]; strain AB1144, read-out: Meropenem MIC Alone): > 10 µg/mL | MIC ([5]; read-out: Meropenem MIC Alone): > 10 µg/mL | MIC ([6]; read-out: Meropenem MIC Alone): 1 to 10 µg/mL | MIC ([7]; read-out: Meropenem MIC Alone): 1 to 10 µg/mL | MIC ([8]; read-out: Meropenem MIC Alone): > 10 µg/mL | MIC ([9]; read-out: Meropenem MIC Alone): > 10 µg/mL | MIC ([10]; read-out: Meropenem MIC Alone): > 10 µg/mL | MIC ([11]; read-out: Meropenem MIC Alone): > 10 µg/mL | MIC ([12]; read-out: Meropenem MIC Alone): > 10 µg/mL | MIC ([13]; read-out: Meropenem MIC Alone): > 10 µg/mL | MIC ([14]; read-out: Meropenem MIC Alone): > 10 µg/mL

O=C(O)c1cccc2c1OB(O)[C@@H](Sc1cccnc1)C2 [Compound 8, (R)-2-hydroxy-3-(pyridin-3-ylthio)-3,4-dihydro-2H-benzo[e][1,2]oxaborinine-8-carboxylic acid]
Ki ([1]; read-out: Ki, Imipenem): > 100 nM | IC50 [2]: < 1000 nM | Ki [3]: > 100 nM

O=C(O)c1cccc2c1OB(O)[C@@H](Sc1nccs1)C2 [Compound 11, (R)-2-hydroxy-3-(thiazol-2-ylthio)-3,4-dihydro-2H-benzo[e][1,2]oxaborinine-8-carboxylic acid]
Ki ([1]; read-out: Ki, Imipenem): > 100 nM | IC50 [2]: ≥ 1000 nM | Ki [3]: > 100 nM | Ki [19]: < 100 nM
